According to the supplement of paper PMC4932681:

Experiments:
Experiment in all cases: viability inhibition at highest dose (% inhibition); higher = more growth inhibition
ZR-75-1 = details: 72 h
Method: (§1)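 Percent inhibition of viability (CellTiter-Glo, 72 h) at the highest tested concentration (D5), normalised to DMSO (0%) and 100 µM benzethonium chloride (100%). Resistant lines and the 'in 1µM tamoxifen' arms were tested in 1 µM 4-OH-tamoxifen.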

BT-474 Tam1 = details: 4-OH-tamoxifen in medium 1 µM; 72 h
Method: as §1

ZR-75-1 Tam1 = details: 4-OH-tamoxifen in medium 1 µM; 72 h
Method: as §1

BT-474 Tam2 = details: 4-OH-tamoxifen in medium 1 µM; 72 h
Method: as §1

T-47D Tam1 = details: 4-OH-tamoxifen in medium 1 µM; 72 h
Method: as §1

MCF-7 Tam1 = details: 4-OH-tamoxifen in medium 1 µM; 72 h
Method: as §1

T-47D = details: 72 h
Method: as §1

ZR-75-1 Tam2 = details: 4-OH-tamoxifen in medium 1 µM; 72 h
Method: as §1

T-47D Tam2 = details: 4-OH-tamoxifen in medium 1 µM; 72 h
Method: as §1

BT-474 = details: 72 h
Method: as §1

MCF-7 = details: 72 h
Method: as §1

Row | SMILES | viability inhibition at highest dose (ZR-75-1; 4-OH-tamoxifen in medium 0 µM) | viability inhibition at highest dose (ZR-75-1; 4-OH-tamoxifen in medium 1 µM) | viability inhibition at highest dose (BT-474 Tam1) | viability inhibition at highest dose (ZR-75-1 Tam1) | viability inhibition at highest dose (BT-474 Tam2) | viability inhibition at highest dose (T-47D Tam1) | viability inhibition at highest dose (MCF-7 Tam1) | viability inhibition at highest dose (T-47D; 4-OH-tamoxifen in medium 0 µM) | viability inhibition at highest dose (T-47D; 4-OH-tamoxifen in medium 1 µM) | viability inhibition at highest dose (ZR-75-1 Tam2) | viability inhibition at highest dose (T-47D Tam2) | viability inhibition at highest dose (BT-474; 4-OH-tamoxifen in medium 0 µM) | viability inhibition at highest dose (BT-474; 4-OH-tamoxifen in medium 1 µM) | viability inhibition at highest dose (MCF-7; 4-OH-tamoxifen in medium 0 µM) | viability inhibition at highest dose (MCF-7; 4-OH-tamoxifen in medium 1 µM)
1 | COc1cc2c(Oc3ccc(NC(=O)C4(C(=O)Nc5ccc(F)cc5)CC4)cc3F)ccnc2cc1OCCCN1CCOCC1 [Foretinib (Foretinib)] (drug 1000 nM) | 0.383 | 13.7 | 31.4 | 9.43 | 10.3 | 19 | 26.2 | 20.6 | 17.8 | 19.5 | 28.5 | 1.4 | 44.6 | 16.9 | 20.7
2 | CC[C@H](Nc1ncnc2[nH]cnc12)c1nc2cccc(F)c2c(=O)n1-c1ccccc1 [CAL-101] (drug 10000 nM) | 45.9 | 45 | 8.87 | 50.8 | 5.84 | 24.5 | -0.638 | 15.2 | 13.7 | 57.3 | 33.6 | 4.44 | 17 | 22.4 | 21.3
3 | CNCc1ccc(-c2[nH]c3cc(F)cc4c3c2CCNC4=O)cc1 (drug 10000 nM) | -4.71 | -4.07 | 2.87 | -4.62 | -16.6 | 1.19 | -2.56 | -7.27 | -9.52 | 0.703 | 6.84 | -3.44 | -1.93 | 6.6 | 1.15
4 | O=C(O)CCCc1ccc(N(CCCl)CCCl)cc1 [Chlorambucil] (drug 10000 nM) | -4.67 | -2.49 | -1.33 | 3.96 | -11.1 | -7.66 | -8.39 | -20.9 | 1.91 | -11.1 | 9.69 | -5.56 | -5.81 | 2.18 | -4.5
5 | Cc1ccc(Nc2nccc(N(C)c3ccc4c(C)n(C)nc4c3)n2)cc1S(N)(=O)=O [Pazopanib] (drug 10000 nM) | -3.01 | 11.1 | 23.6 | 6.13 | 7.37 | 4.97 | 1.65 | 12.7 | -6.23 | 10.8 | 23.6 | -2.15 | -6.21 | 8.65 | 16.4
6 | Cc1ccc(NC(=O)c2ccc(CN3CCN(C)CC3)cc2)cc1Nc1nccc(-c2cccnc2)n1 [Imatinib] (drug 10000 nM) | 0.33 | 17.8 | 49.1 | 7.91 | 27.2 | 3.96 | 4.63 | 10.4 | 5.9 | 8.38 | 20.5 | -0.39 | 23.3 | -13.1 | 11.1
7 | Nc1ccccc1NC(=O)c1ccc(CNC(=O)OCc2cccnc2)cc1 [Entinostat] (drug 10000 nM) | 33.7 | 10.2 | 79 | 28.8 | 53.2 | 60.3 | 5.52 | 66.4 | 36.6 | 27.5 | 10.9 | 61.4 | 83.9 | 62.3 | 40.4
8 | CN1CCc2c(c3ccccc3n2Cc2ccc(C(=O)NO)cc2)C1 [Tubastatin A] (drug 10000 nM) | 17.4 | 18.8 | 36.4 | 16.1 | 12.3 | 0.672 | 2.15 | 2.46 | 1.6 | 12.3 | 11.4 | 8.77 | 28.9 | 10.2 | 17.2
9 | C=CC(=O)N1CCC[C@@H](n2nc(-c3ccc(Oc4ccccc4)cc3)c3c(N)ncnc32)C1 (drug 1000 nM) | 7.99 | 7.55 | 98.2 | 1.82 | 96.5 | 19.8 | -17.1 | -1.5 | -2.82 | 5.37 | 14.1 | 69.5 | 94.6 | -5.41 | 23
10 | Cc1ccc(-c2cc(C(F)(F)F)nn2-c2ccc(S(N)(=O)=O)cc2)cc1 [Celecoxib] (drug 10000 nM) | -12 | 11.6 | 12.6 | 4.71 | 4.93 | 2.27 | 4.31 | -3.21 | 5.57 | -10.3 | 18.3 | -0.849 | 1.11 | 15.2 | 5.23
11 | C[C@@H](Oc1cc(-c2cnn(C3CCNCC3)c2)cnc1N)c1c(Cl)ccc(F)c1Cl [Crizotinib] (drug 1000 nM) | -7.38 | -5.41 | 4.07 | 0.927 | 7.24 | 0.597 | -0.481 | -19.1 | -7.52 | 0.924 | 2.79 | -4.38 | -15.8 | 0.562 | 6.55
12 | C[C@]12O[C@H](C[C@]1(O)CO)n1c3ccccc3c3c4c(c5c6ccccc6n2c5c31)CNC4=O [Lestaurtinib] (drug 1000 nM) | 8.87 | 8.3 | 46.3 | 1.32 | 24.5 | -16.2 | 21.2 | -13.3 | 19.6 | 12.4 | -5.08 | 10.1 | 42.1 | 21.4 | 9.26
13 | COc1cc(F)c(F)c(Nc2ccc(I)cc2F)c1NS(=O)(=O)C1(C[C@H](O)CO)CC1 [Refametinib (RDEA119)] (drug 10000 nM) | 20.6 | 14.9 | 36.3 | 8.84 | 14 | 31.2 | 33.1 | 24.3 | 12.7 | 10.6 | 22 | 9.83 | 54.3 | 44.2 | 39.9
14 | CC[C@@H]1C(=O)N(C)c2cnc(Nc3ccc(C(=O)N[C@H]4CC[C@H](N5CCN(CC6CC6)CC5)CC4)cc3OC)nc2N1C(C)C [Volasertib (BI 6727)] (drug 1000 nM) | 7.01 | 16.1 | 26 | 18.7 | 9.62 | 24.6 | 0.498 | 30.8 | -1.17 | 18.7 | 21.4 | 13.2 | 25.5 | 24.2 | 24.7
15 | CCCCCCCCc1ccc(CCC(N)(CO)CO)cc1 [Fingolimod] (drug 10000 nM) | 40.8 | 52.5 | 96.8 | 45.3 | 95.2 | 62.4 | 11.9 | 69.4 | 91.9 | 55.5 | 59.1 | 94.4 | 96.6 | 94.6 | 71.4
16 | Nc1nc2[nH]cnc2c(=S)[nH]1 [Thioguanine] (drug 10000 nM) | 43.6 | 32.5 | 28.5 | 37.8 | 24 | 50.6 | 28.6 | 36.5 | 23.8 | 32.6 | 41.7 | 11.1 | 20.1 | 55.7 | 46.2
17 | CCC1(c2ccc(N)cc2)CCC(=O)NC1=O (stereo not given) [Aminoglutethimide] (drug 10000 nM) | 6.41 | 10.3 | 12.8 | 9.59 | -1.52 | 4.05 | 6.51 | -3.76 | 5.9 | 8.94 | 4.12 | -3.67 | 20 | -3.88 | 8.64
18 | Cn1cc(CNCC2CCN(c3ncc(C(=O)NO)cn3)CC2)c2ccccc21 (drug 1000 nM) | 47.6 | 37.9 | 83.8 | 37.4 | 74.7 | 86.6 | 21.6 | 94.3 | 94.1 | 48.7 | 71.1 | 88.3 | 94.3 | 89.3 | 90
19 | C[C@]12CC[C@H](O)CC1=CC[C@@H]1[C@@H]2CC[C@]2(C)C(c3cccnc3)=CC[C@@H]12 [Abiraterone (CB-7598)] (drug 5000 nM) | -6.86 | -7.24 | 6.31 | -0.517 | -1 | -5.53 | -8.38 | -18.4 | -16.6 | -3.39 | -1.44 | -6.23 | -14.7 | -13.6 | -10.3
20 | NC(=O)Nc1cc(-c2cccc(F)c2)sc1C(=O)N[C@H]1CCCNC1 [AZD7762] (drug 1000 nM) | 10.5 | -0.00544 | -13.6 | -10.3 | -14.7 | 18.2 | 2.31 | -14.8 | 13.8 | -5.84 | 29.3 | -6.57 | -6.16 | 35.5 | 5.25
21 | O=C(O)CC[C@H]1CC[C@@](c2cc(F)ccc2F)(S(=O)(=O)c2ccc(Cl)cc2)CC1 [MK-0752] (drug 1000 nM) | -11.9 | -13.3 | -7.32 | -3.02 | 2.64 | 2.67 | -0.531 | -16.2 | -1.71 | -2.73 | 4.08 | -9.96 | -12.2 | -24.6 | 1.59
22 | CN(C)CCOc1ccc(/C(=C(/CCCl)c2ccccc2)c2ccccc2)cc1 [Toremifene (citrate)] (drug 10000 nM) | 3.59 | 24.4 | 95.2 | 18.3 | 99.1 | 45.2 | 35.5 | 9.04 | 1.56 | 25.1 | 62 | 25.6 | 82.9 | 19.2 | 69.3
23 | CN(C)CCN1C(=O)c2cccc3cc(N)cc(c23)C1=O [Amonafide] (drug 10000 nM) | 35.4 | 17.1 | -18.4 | 12.9 | -15.7 | 5.27 | 7.15 | 23.6 | -12 | 23.1 | 11.3 | -11.5 | -35.2 | 51.1 | 20.4
24 | C[C@]1(c2nc3c(C(N)=O)cccc3[nH]2)CCCN1 [Veliparib  (ABT-888)] (drug 10000 nM) | -8.51 | 2.27 | 6.83 | 2.16 | -7.23 | 2.73 | -2.94 | -14.2 | -15.3 | 6.18 | 6.94 | -7.48 | 9.81 | 8.41 | -2.66
25 | Cc1sc2c(c1C)C(c1ccc(Cl)cc1)=N[C@@H](CC(=O)OC(C)(C)C)c1nnc(C)n1-2 [(+)JQ1] (drug 10000 nM) | 29.8 | 30.9 | 75 | 43.3 | 76.6 | 46.9 | 15.2 | 34.3 | 16.5 | 37.8 | 29.1 | 31.3 | 68.4 | 52.8 | 59.6
26 | CCN(CC)CCCC(C)Nc1ccnc2cc(Cl)ccc12 (stereo not given) [Chloroquine] (drug 990000 nM) | -2.67 | -3.36 | 19 | 0.712 | 7.83 | 3.21 | -1.25 | -0.514 | -3.72 | 6.98 | -12.2 | -6.4 | -13.3 | -2.81 | 0.449
27 | O=C(CCCCCCC(=O)Nc1ccc([C@H]2O[C@@H](CSc3nc(-c4ccccc4)c(-c4ccccc4)o3)C[C@@H](c3ccc(CO)cc3)O2)cc1)NO [Tubacin] (drug 10000 nM) | 18.1 | 24.4 | 21.5 | 32.9 | 33.8 | 45.1 | 22.1 | 57.8 | 90.2 | 19.2 | 39.4 | 28.3 | 84.7 | 55.1 | 67.2
28 | CS(=O)(=O)N1CCN(Cc2cc3nc(-c4cccc5[nH]ncc45)nc(N4CCOCC4)c3s2)CC1 [Pictilisib (GDC-0941)] (drug 10000 nM) | 64.3 | 60.7 | 86.1 | 76.9 | 82.5 | 70.6 | 64.4 | 68.5 | 76.6 | 76.1 | 67.4 | 63.6 | 90.6 | 76.8 | 81.6
